Assay type in all cases: cell-based
One data set deals with dengue virus. Nature of the data set: Dengue EC50 determination: PBMC infected with virus/humanized 4G2 antibody complex, plaque reduction assay using BHK cells. Conditions: M.O.I of 1, 48 hours, plaque reduction in BHK cells. As for the experimental part: Cryopreserved PBMC (Peripheral Blood Mononuclear Cell) cells were purchased from AllCells, LLC in USA. The cells were then thawed according to manufacturer's instructions and re-suspended in RPMI medium supplemented with 1% penicillin/streptomycin solution and 10% Fetal Calf serum. The cells were then counted and viability checked (viability should be at least 80%). After centrifuging and removing the media, the cells were diluted to 1×10^7 cells/mL in RPMI medium supplemented with 1% penicillin/streptomycin. 50 μl of the cells were then dispensed into 96-well tissue culture plate resulting in 5×10^5 cells/well. Next, virus with humanized 4G2 mixture was prepared for infection. Briefly, virus (2×10^7 pfu/ml) was mixed with humanized 4G2 antibody with the final antibody concentration of 0.38 μg/ml and incubated for 30 minutes at 4° C. to assist virus/antibody complex formation. The virus-antibody complex was then added to the PBMC at multiplicity of infection (M.O.I) of 1. The mixture of cells, virus and antibody was then further incubated in the plates at 37° C. for an hour in the humidified incubator for virus attachment and infection to take place. Serial diluted compounds were then added to the final media volume of 200 μl with 2% Fetal Calf Serum (final PBMC concentration would be 2.5×10^6 cells/mL). The plates were then incubated at 37° C., 5% CO2 for another 48 hours. The extent of the infection and compound inhibition was measured by plaque reduction assay using BHK cells [RD-2004-80036]. Briefly, supernatants of BHK cells grown in 24-well tissue culture (seeded at 200,000 cells/well the night before) were removed and subjected to 200 μl of diluted supernatants derived from PBMC infection containing serial diluted compounds. After incubating it for 37° C. for 1 hour in the incubator, the supernatants were removed and BHK cells overlaid with RPMI media containing 0.8% methyl-cellulose, 0.5% DMSO, 0.05% sodium bicarbonate, 25 mM HEPES, 2% fetal bovine serum and 1% penicillin/streptomycin solution. After additional 4 days of incubation at 37° C. incubator, the monolayer of BHK cells were fixed with 4% paraformaldehyde, stained with crystal violet and plaques counted. The dose response (n=2) is calculated by Prism from Graphpad software using a mathematical curve fitting analysis called nonlinear regression with four independent parameters. Briefly, the software generates the best fit curve using the formula F(x)=((A−D)/(1+((x/C)̂B)))+D. In this formula, x represents the concentration of the compound, A is the minimum value, B represents the steepness of the curve (sometimes known as Hill slope), C is the inflection point and D is the maximum value. EC50 was estimated as the concentration of the compound which will inhibit 50% of the plaque formation. A positive control (7-deaza-2′-C-acetylene-adenosine) was used to ensure the quality of the data.

The nature of data set [1]: CCK8 cytotoxicity assay in THP-1 cells. Conditions: human, CCK-8. As for the experimental part:
4 day cytotoxicity assay using THP-1 cells: THP-1 cells grown in suspension were counted and diluted to 8×10^4 cells/ml in RPMI-1640 media supplemented with 10% fetal bovine serum (FBS) and 1% penicillin/streptomycin. 25 ul of the THP-1 containing media consisting of 2000 cells were dispensed in 384-well tissue culture plate and pre-incubated at room temperature for 30 minutes, followed by 37° C., 5% CO2 overnight in the humidified incubator. On the next day, serial-diluted compound plates were prepared and 125 nl of compounds at various concentrations were then dispensed into the tissue culture well (200× dilution). The plates were then transferred to 37° C., 5% CO2 humidified incubator for additional 96 hours. Cytotoxicity was measured by CCK-8 assay. Briefly, CCK-8 was thawed on bench top and diluted 2.5× with the growth media. 35 ul of the pre-diluted CCK-8 was then introduced into each well and the plates were then further incubated in 37° C., 5% CO2 humidified incubator for 3 hours. The absorbance was read by Envision at 450 nm. Dose response curves were calculated as in the previous section (n=2). The CC50 is estimated as the concentration of the compound which will inhibit 50% of the signal. A positive control (puromycin) was used to ensure the quality of the data.
(Formazan colour is commonly taken as a measure of viable cells.)

The nature of data set [2]: CCK8 cytotoxicity assay in HepG2 cells. Conditions: human, CCK-8. As for the experimental part:
HepG2 cells were trypsinized, washed, counted and diluted to 1.6×10^4 cells/ml in DMEM-W/O Glucose, supplemented with 10% Fetal bovine serum (FBS), 1% Penicillin/Streptomycin, 2 mM HEPES, 1 mM Sodium Pyruvate, 10 mM Galactose & 2 mM Glutamine. 25 μl of the media containing 400 cells per well were dispensed in clear 384-well tissue culture plate and incubated at room temperature for 30 minutes. The plate was then transferred and placed at 37° C., 5% CO2 humidified incubator overnight. On the next day, serial-diluted compound plates were prepared and 125 nl of compounds at various concentrations were then dispensed into the tissue culture well (200× dilution). The plates were then transferred to 37° C., 5% CO2 humidified incubator for additional 96 hours. Cytotoxicity was measured by CCK-8 assay. Briefly, CCK-8 was thawed on bench top and diluted 2.5× with the growth media. 35 ul of the pre-diluted CCK-8 was then introduced into each well and the plates were then further incubated in 37° C., 5% CO2 humidified incubator for 3 hours. The absorbance was read by Envision at 450 nm. Dose response curves were calculated as in the previous section. The CC50 is estimated as the concentration of the compound which will inhibit 50% of the signal. A positive control (puromycin) was used to ensure the quality of the data.

For orientation: EC50 means the concentration giving half of the maximal effect. A high value points to a need for much substance. For `CCOC(=O)[C@H](C)N[P@@]1(=O)OC[C@H]2O[C@@H](n3cnc4c(N)nc(N)nc43)[C@](C)(F)[C@@H]2O1` [Comparative Example 1, (S)-Ethyl 2-(((2R,4aR,6R,7R,7aR)-6-(2,6-diamino-9H-purin-9-yl)-7-fluoro-7-methyl-2-oxidotetrahydro-4H-furo[3,2-d][1,3,2]dioxaphosphinin-2-yl)amino)propanoate, reference compound], the EC50 with dengue virus was more than 25 µM. The molecule `CCOC(=O)[C@H](C)N[P@@]1(=O)OC[C@H]2O[C@@H](n3ccc(=O)[nH]c3=O)[C@](C)(F)[C@@H]2O1` [Comparative Example 2, (S)-ethyl 2-(((2R,4aR,6R,7R,7aR)-6-(2,4-dioxo-3,4-dihydropyrimidin-1(2H)-yl)-7-fluoro-7-methyl-2-oxidotetrahydro-4H-furo[3,2-d][1,3,2]dioxaphosphinin-2-yl)amino)propanoate, reference compound] gave an EC50 in the data set on dengue virus of more than 25 µM. Molecule `CCOc1nc(N)nc2c1ncn2[C@@H]1O[C@@H]2CO[P@@](=O)(OC(C)C)O[C@H]2[C@@]1(C)F` [Comparative Example 3, (2S,4aR,6R,7R,7aR)-6-(2-amino-6-ethoxy-9H-purin-9-yl)-7-fluoro-2-isopropoxy-7-methyltetrahydro-4H-furo[3,2-d][1,3,2]dioxaphosphinine 2-oxide, reference compound] displayed an EC50 with dengue virus of more than 25 µM.

A word on the CC50: it is the concentration giving 50% cytotoxicity. Read a low CC50 as harm at low concentration. As to `COC(=O)[C@H](C)N[P@@]1(=O)OC[C@H]2O[C@@H](n3cnc4c(OC(C)C)nc(N)nc43)[C@](C)(F)[C@@H]2O1` [Example 12, (S)-methyl 2-(((2R,4aR,6R,7R,7aR)-6-(2-amino-6-isopropoxy-9H-purin-9-yl)-7-fluoro-7-methyl-2-oxidotetrahydro-4H-furo[3,2-d][1,3,2]dioxaphosphinin-2-yl)amino)propanoate], the CC50 at 96 h in data set [1] and in data set [2] was more than 50 µM throughout. Further, the EC50 in the data set with dengue virus is 0.43 µM. With `CCCOc1nc(N)nc2c1ncn2[C@@H]1O[C@@H]2CO[P@](=O)(N[C@@H](C)C(=O)OC)O[C@H]2[C@@]1(C)F` [Example 14, (S)-methyl 2-(((2R,4aR,6R,7R,7aR)-6-(2-amino-6-propoxy-9H-purin-9-yl)-7-fluoro-7-methyl-2-oxidotetrahydro-4H-furo[3,2-d][1,3,2]dioxaphosphinin-2-yl)amino)propanoate], the CC50 at 96 h in data set [1] and in data set [2] was more than 50 µM each time. Also, it took 0.18 µM to reach a half-maximal effect with dengue virus (EC50).

The record behind these values is US20140205566A1, “CYCLIC NUCLEUOSIDE DERIVATIVES AND USES THEREOF” (NOVARTIS AG, priority 2012, published 2014).
